What all share (format): functional, cell-based
The test system of one assay is K562. Put plainly: Anticancer activity against human K562 cells assessed as cell growth inhibition incubated for 4 days by MTT assay. The conditions noted are these: K562, 96 h. In general terms: Tetrazolium assays rely on reduction of a dye to a coloured formazan, in cell work by metabolically active cells.
For a further assay, the system named is HeLa. Put plainly: Anticancer activity against human HeLa cells assessed as cell growth inhibition incubated for 4 days by MTT assay. The note with it: 96 h.
A short description of assay [1]: Anticancer activity against human MM649 cells assessed as cell growth inhibition incubated for 4 days by MTT assay. The conditions noted are these: MM649, 96 h.

Molecules are shown by their SMILES.

These results are taken from ChEMBL document CHEMBL6177972 (J Nat Prod, 2025).

For the molecule `CCCCCCCCCCCCC[C@H]1C[C@H](OC(C)=O)C[C@@]2(C[C@@H]3OC(=O)C=C[C@@H]3O2)O1`, the IC50 (as a rule, the concentration needed to halve the response being measured) in the assay with K562 stood at 10.5 µM; in the assay on HeLa, 2.3 µM; in assay [1], 1.9 µM.
In the case of `CCCCCCCCCCCCC[C@H](O)C[C@H]1C[C@H](O)C[C@@]2(C[C@@H]3OC(=O)C=C[C@@H]3O2)O1`, the IC50 in the assay with K562 was 20.3 µM; in the assay with HeLa, 5.1 µM; in assay [1] it was 3.3 µM.
For `O=C1C=C[C@@H]2O[C@]3(C[C@@H](O)C[C@H](C[C@@H](O)CCCCCCCCc4ccc5c(c4)OCO5)O3)C[C@@H]2O1` the same measures were 25.8 µM, 18.1 µM and 14.9 µM.
`O=C1C[C@H](CCCCCCCCc2ccc3c(c2)OCO3)O[C@@]2(C1)C[C@@H]1OC(=O)C=C[C@@H]1O2`: the IC50 in the assay with K562 came out at 16.6 µM; in the assay on HeLa, 5.9 µM; in assay [1], 5.9 µM.
In the case of `O=C1C=C[C@@H]2O[C@]3(C[C@@H](O)C[C@H](CCCCCCCCc4ccc5c(c4)OCO5)O3)C[C@@H]2O1`, the half-maximal inhibitory concentration (IC50) in the assay on K562 was 25.1 µM; with HeLa, 13.6 µM; in assay [1] it was 10.8 µM.
The matching figures for `CC(=O)O[C@H]1C[C@H](C[C@@H](O)CCCCCCCCc2ccc3c(c2)OCO3)O[C@@]2(C1)C[C@@H]1OC(=O)C=C[C@@H]1O2`: 39.6 µM, 27.1 µM and 24.5 µM.
For `O=C1C=C[C@H](O)[C@H](CCCCCCCCc2ccc3c(c2)OCO3)O1` the same measures were 13.6 µM, 5.6 µM and 7.6 µM.
The matching figures for `CCCCCCCCCCCCC[C@H]1C[C@H](O)C[C@@]2(C[C@@H]3OC(=O)C=C[C@@H]3O2)O1`: 15.6 µM, 4.2 µM and 2.7 µM.
Consider `CC(=O)O[C@H]1C[C@H](CCCCCCCCc2ccc3c(c2)OCO3)O[C@@]2(C1)C[C@@H]1OC(=O)C=C[C@@H]1O2`, for which the IC50 in the assay on K562 amounted to 13.5 µM; in the assay with HeLa, 4.5 µM; in assay [1] it was 3.9 µM.
The matching figures for `CCCCCCCCCCCCC[C@H]1CC(=O)C[C@@]2(C[C@@H]3OC(=O)C=C[C@@H]3O2)O1`: 11.9 µM, 3.9 µM and 3.1 µM.
As to `COc1cccc2c1C(=O)c1c(O)c3c(c(O)c1C2=O)C[C@@](O)(C(=O)CO)C[C@@H]3O[C@H]1C[C@H](N)[C@H](O)[C@H](C)O1` [DOXORUBICIN], the values for the half-inhibitory concentration (IC50) (with K562; in assay [1]) were 0.12 µM and 0.05 µM, respectively.
